# What was measured:
# Plasmodium falciparum [1] = experiment: Antimalarial activity against Plasmodium falciparum 3D7; assay type: functional, organism-based
# [2] = molecular target: T1, Enoyl-acyl-carrier protein reductase (Plasmodium falciparum, UniProt Q965D5); experiment: Inhibition of Plasmodium falciparum ENR enzymatic activity
# T1 sequence (Q965D5 whole entry): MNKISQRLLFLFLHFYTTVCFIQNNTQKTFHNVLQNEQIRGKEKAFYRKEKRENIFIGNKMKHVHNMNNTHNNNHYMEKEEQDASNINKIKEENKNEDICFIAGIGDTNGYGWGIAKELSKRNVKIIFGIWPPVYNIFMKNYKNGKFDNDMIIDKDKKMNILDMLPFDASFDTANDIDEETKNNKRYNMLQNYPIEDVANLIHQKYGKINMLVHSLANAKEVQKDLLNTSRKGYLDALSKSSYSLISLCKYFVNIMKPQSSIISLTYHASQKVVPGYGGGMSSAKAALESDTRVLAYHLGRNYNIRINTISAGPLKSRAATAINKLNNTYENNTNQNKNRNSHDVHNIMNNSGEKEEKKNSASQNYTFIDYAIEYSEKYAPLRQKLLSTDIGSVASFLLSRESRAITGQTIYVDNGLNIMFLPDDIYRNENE
# Plasmodium falciparum [3] = experiment: Antimalarial activity against Plasmodium falciparum Dd2; assay type: functional, organism-based
Structure (SMILES),EC50 (Plasmodium falciparum [1]) [nM],IC50 [2] [nM],EC50 (Plasmodium falciparum [3]) [nM]
Oc1cc(Cl)ccc1Oc1ccc(Cl)cc1CN1CCCC1,500,> 50000,450
Oc1cc(Cl)ccc1Oc1ccc(Cl)cc1CNCc1ccc2c(c1)CCO2,180,9000,110
Oc1cc(Cl)ccc1Oc1ccc(Cl)cc1CNc1ccc2ccccc2c1,210,26000,140
Oc1cc(Cl)ccc1Oc1ccccc1CNCc1ccccc1,490,10000,420
Oc1cc(Cl)ccc1Oc1ccccc1CNCc1ccc(Cl)cc1,330,35000,300
O=C(NCc1cc(Cl)ccc1Oc1ccc(Cl)cc1O)c1ccccc1,8600,18000,12000
Oc1cc(Cl)ccc1Oc1ccccc1CNCCCc1ccccc1,320,19000,390
Oc1cc(Cl)ccc1Oc1ccccc1CNc1cccc2ccccc12,300,11000,370
CC(C)(NCc1ccc(Cl)cc1)c1cc(Cl)ccc1Oc1ccc(Cl)cc1O,410,7200,350
Oc1cc(Cl)ccc1Oc1ccc(Cl)cc1CNc1cccc2ccccc12,2600,> 50000,2200
CN(Cc1ccc(Cl)cc1)Cc1cc(Cl)ccc1Oc1ccc(Cl)cc1O,250,22000,190
Oc1cc(Cl)ccc1Oc1ccc(Cl)cc1CNCc1ccc(-c2ccccc2)cc1,230,35000,150
Oc1cc(Cl)ccc1Oc1ccc(Cl)cc1CN1CCN(C(c2ccccc2)c2ccccc2)CC1,2100,> 50000,1400
Oc1cc(Cl)ccc1Oc1ccc(Cl)cc1CN1CCN(c2ccccc2)CC1,14000,6100,15000
Oc1cc(Cl)ccc1Oc1ccccc1CNCCc1ccccc1,780,2500,750
Oc1cc(Cl)ccc1Oc1ccc(Cl)cc1CNCc1ccc(Cl)cc1,320,7200,270
NCc1ccccc1Oc1ccc(Cl)cc1O,9700,> 50000,7200

# More lines, in order of falling EC50 (Plasmodium falciparum [1]), values ahead:
EC50 (Plasmodium falciparum [1]) [nM],IC50 [2] [nM],EC50 (Plasmodium falciparum [3]) [nM],Structure (SMILES)
83000,7000,140000,Nc1ccccc1Oc1ccc(Cl)cc1O
19000,> 50000,24000,COc1cc(Cl)ccc1Oc1ccccc1CNCc1ccc(Cl)cc1
11000,15000,17000,O=S(=O)(NCc1cc(Cl)ccc1Oc1ccc(Cl)cc1O)c1ccccc1
3500,28000,5900,CC(=O)N(Cc1ccc(Cl)cc1)Cc1cc(Cl)ccc1Oc1ccc(Cl)cc1O
2700,> 50000,2000,NCc1cc(Cl)ccc1Oc1ccc(Cl)cc1O
770,3300,830,Oc1cc(Cl)ccc1Oc1ccc(Cl)cc1CNCc1ccccc1
730,> 50000,480,Oc1cc(Cl)ccc1Oc1ccc(Cl)cc1CN1CCCCC1
630,11000,620,Oc1cc(Cl)ccc1Oc1ccc(Cl)cc1CN1CCN(Cc2ccccc2)CC1
580,27000,470,CNCc1cc(Cl)ccc1Oc1ccc(Cl)cc1O
450,46000,330,Oc1cc(Cl)ccc1Oc1ccccc1CNc1ccc2ccccc2c1
180,19000,220,CN(C)Cc1cc(Cl)ccc1Oc1ccc(Cl)cc1O
140,27000,380,CN(Cc1ccc(Cl)cc1)C(C)(C)c1cc(Cl)ccc1Oc1ccc(Cl)cc1O

# Source: ChEMBL document CHEMBL1146948, “Synthesis and biological activity of diaryl ether inhibitors of malarial enoyl acyl carrier protein reductase. Part 2: 2'-substituted triclosan derivatives” (Bioorg Med Chem Lett, 2006)
